Experimental data as given in publication PMC3433414, “Oral Administration of the Pimelic Diphenylamide HDAC Inhibitor HDACi 4b Is Unsuitable for Chronic Inhibition of HDAC Activity in the CNS In Vivo” (PLoS ONE, 2012).

How the values were obtained:
[1] = target: T1, HDAC7 (Homo sapiens, UniProt Q8WUI4); test: Two-step fluorogenic deacetylase assay, recombinant HDAC7; type: biochemical; settings: up to 50 µM
T1 construct: HDAC7 (αα 518-end; cat # 50007); purchased BPS Bioscience (San Diego, CA) 50007
T1 sequence (Q8WUI4 518-952 limits assumed): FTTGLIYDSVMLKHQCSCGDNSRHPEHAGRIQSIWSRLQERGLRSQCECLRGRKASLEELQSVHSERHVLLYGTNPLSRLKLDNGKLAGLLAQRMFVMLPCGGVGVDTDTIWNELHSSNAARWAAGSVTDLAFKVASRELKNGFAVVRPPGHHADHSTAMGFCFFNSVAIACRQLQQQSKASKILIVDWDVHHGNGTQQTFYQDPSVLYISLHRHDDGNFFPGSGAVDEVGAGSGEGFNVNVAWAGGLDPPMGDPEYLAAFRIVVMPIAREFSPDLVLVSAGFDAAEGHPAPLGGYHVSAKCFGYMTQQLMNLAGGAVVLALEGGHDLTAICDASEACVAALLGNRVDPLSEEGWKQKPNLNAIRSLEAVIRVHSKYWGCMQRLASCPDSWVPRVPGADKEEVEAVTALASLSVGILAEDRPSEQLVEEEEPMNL
Source text: To assess the biochemical and cellular potency of 4b and its conversion products/metabolites, we utilized the two-step fluorogenic assay which measures the HDAC-mediated catalytic conversion of synthetic acetylated lysine substrates. In brief, on deacetylation of the substrates by HDAC activity, a protease site is unmasked which allows subsequent trypsin-mediated cleavage and release of the highly flourescent AMC molecules in a subsequent step of the assay. The substrates used were Lys_Ac_AMC (Bachem I-1875) for HDAC3 and (Ac)Arg-Gly-Lys(Ac) (Bachem I-1925) for HDAC1 and HDAC2. […] However, the relatively labile and sterically more demanding trifluoracetyl group is readily hydrolyzed by the catalytically less avid Class IIa enzymes, allowing measurement of Class IIa activity using the 2-step fluorogenic assay. […]
For evaluation of the class selectivity of the compounds, we assessed inhibition against purified recombinant human full length HDAC1 (cat# 50051), HDAC2 (cat# 50052), HDAC3-NcoR2 (cat# 50003) and HDAC8 (cat# 50008): as representative of Class I activity; catalytic domain HDAC4(αα 648–1057), HDAC5 (αα 657–1123; cat # 50005), HDAC7 (αα 518-end; cat # 50007) and HDAC9 (αα 604–1066; cat # 50009) activity: representing all Class IIa activity; and full length HDAC6 (cat#50006): representing Class IIb activity. […]

[2] = test system: PCP; test: Cerep binding, antagonist radioligand; settings: 10 μM
Source text: (§1) In addition to the HDAC profiling performed, we also queried 4b for any apparent potential off-target effects, which could complicate any finding of efficacy or adverse events in vivo due to ‘polypharmacy’. This was accomplished by screening against a ‘diversity panel’ of 72 binding and 29 enzyme assays, comprised of roughly equal numbers of selective central and peripheral therapeutically relevant targets (Cerep Diversity Profile). This panel included representative targets from diverse enzyme families, G protein coupled receptors, steroid nuclear receptors, voltage- and ligand-gated ion channels. While not totally inclusive, it is a useful tool for discovery compounds to assess their viability as proof of concept molecules to specifically query a particular target. 4b was initially screened at 10 µM in duplicate. The full set of results is provided as Table S1. […] This clean in vitro profile was considered acceptable to proceed to ADME and pharmacokinetic studies.

[3] = test system: M (non‐selective); test: Cerep binding, antagonist radioligand; settings: 10 μM
Source text: as §1

[4] = test system: Na+ channel (site 2); test: Cerep binding, antagonist radioligand; settings: 10 μM
Source text: as §1

[5] = test system: NMDA; test: Cerep binding, antagonist radioligand; settings: 10 μM
Source text: as §1

[6] = test system: opioid (non‐selective); test: Cerep binding, antagonist radioligand; settings: 10 μM
Source text: as §1

[7] = test system: KATP channel; test: Cerep binding, antagonist radioligand; settings: 10 μM
Source text: as §1

[8] = target: T2, D1 (h) (Homo sapiens, UniProt P21728); test: Cerep binding, antagonist radioligand; settings: read-out: % inhibition of control specific binding
T2 construct: purchased Cerep (Diversity Profile)
T2 sequence (P21728 whole entry): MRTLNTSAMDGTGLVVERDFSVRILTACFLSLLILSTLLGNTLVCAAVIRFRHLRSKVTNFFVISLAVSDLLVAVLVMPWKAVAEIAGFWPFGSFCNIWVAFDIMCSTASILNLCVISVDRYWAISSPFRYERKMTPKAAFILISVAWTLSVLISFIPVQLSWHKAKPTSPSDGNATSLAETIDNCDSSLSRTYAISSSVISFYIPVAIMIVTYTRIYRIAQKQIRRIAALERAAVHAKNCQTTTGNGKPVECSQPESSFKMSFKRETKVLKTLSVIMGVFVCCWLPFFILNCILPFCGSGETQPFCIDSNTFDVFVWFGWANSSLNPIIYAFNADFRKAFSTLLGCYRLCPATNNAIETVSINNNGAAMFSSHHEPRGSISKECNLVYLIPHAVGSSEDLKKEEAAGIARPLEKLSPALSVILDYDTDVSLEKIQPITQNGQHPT
Source text: as §1

Row | % inhibition of control specific binding [6] | % inhibition of control specific binding [7] | inhibition at 10 µM [8] | Compound | activity against HDAC7 [1] | % inhibition of control specific binding [2] | % inhibition of control specific binding [3] | % inhibition of control specific binding [4] | % inhibition of control specific binding [5]
1 |  |  |  | Nc1ccccc1NC(=O)CCCCCC(=O)Nc1ccccc1 [Compound 4b] | No activity | 15% | 13% | 7% | 1%
2 | 40% | 5% | 27% | O=C(CCCCCc1nc2ccccc2[nH]1)Nc1ccccc1 [Compound C1, 6-(1-H-benzo[d]imidazol-2-yl)-N-phenylhexanamide] |  |  |  |  | 
